Several values for one entry are separate records, joined by “and”; a condition that tells them apart may be missing. Equal entries are not always repeated. Numbers after ± are expanded uncertainties.
Conditions: Liquid; for electrical conductivity: electrochemical impedance spectroscopy; for mass density: Vibrating tube method

Work on `CCCCC[P+](CC)(CC)CC.O=S(=O)([N-]S(=O)(=O)C(F)(F)F)C(F)(F)F` yielded a viscosity (298.15 K, 60200 kPa, Falling or rolling sphere viscometry) of 188.2 ± 8.8 mPa·s, an electrical conductivity (298.15 K, 76900 kPa, Frequency=0 MHz) of 0.0691 ± 0.0014 S/m and a viscosity (298.15 K, 80100 kPa, Falling or rolling sphere viscometry) of 237.6 ± 13 mPa·s. It also gave an electrical conductivity (298.15 K, 99300 kPa, Frequency=0 MHz) of 0.0551 ± 0.0011 S/m, a viscosity (298.15 K, 100600 kPa, Falling or rolling sphere viscometry) of 299.8 ± 18 mPa·s and a viscosity (298.15 K, 120600 kPa, Falling or rolling sphere viscometry) of 374.6 ± 26 mPa·s. The viscosity (298.15 K, 120900 kPa, Falling or rolling sphere viscometry) was 375.1 ± 26 mPa·s, the electrical conductivity (298.15 K, 126100 kPa, Frequency=0 MHz) was 0.0413 ± 0.00083 S/m and the viscosity (298.15 K, 140500 kPa, Falling or rolling sphere viscometry) was 464.2 ± 35 mPa·s. For the same molecule, the electrical conductivity (298.15 K, 149100 kPa, Frequency=0 MHz) was 0.0333 ± 0.00067 S/m, the viscosity (298.15 K, 160800 kPa, Falling or rolling sphere viscometry) was 575.1 ± 48 mPa·s and the viscosity (298.15 K, 180200 kPa, Falling or rolling sphere viscometry) was 703.8 ± 63 mPa·s. It also gave a viscosity (298.15 K, 199500 kPa, Falling or rolling sphere viscometry) of 855.3 ± 82 mPa·s, an electrical conductivity (298.15 K, 225400 kPa, Frequency=0 MHz) of 0.0159 ± 0.00032 S/m and an electrical conductivity (298.15 K, 249800 kPa, Frequency=0 MHz) of 0.0127 ± 0.00026 S/m. For the same molecule, the electrical conductivity (298.16 K, 600 kPa, Frequency=0 MHz) was 0.164 ± 0.0034 S/m, the electrical conductivity (298.16 K, 1600 kPa, Frequency=0 MHz) was 0.162 ± 0.0032 S/m and the electrical conductivity (298.16 K, 201000 kPa, Frequency=0 MHz) was 0.0201 ± 0.0004 S/m. The viscosity (303.15 K, 100 kPa, Concentric cylinders viscometry) was 67.86 ± 1.5 mPa·s, the viscosity (303.15 K, 100 kPa, Falling or rolling sphere viscometry) was 68.41 ± 2.4 mPa·s and the mass density (303.15 K, 100 kPa) was 1298.32 ± 1.3 kg/m3 [middle of 6 runs]. For the same molecule, the electrical conductivity (303.15 K, 101.33 kPa) was 0.208 S/m and 0.207 S/m, the viscosity (303.15 K, 700 kPa, Falling or rolling sphere viscometry) was 68.43 ± 2.3 mPa·s and the mass density (303.15 K, 1000 kPa) was 1298.99 ± 1.3 kg/m3. For the same molecule, the mass density (303.15 K, 5000 kPa) was 1301.97 ± 1.3 kg/m3, the mass density (303.15 K, 10000 kPa) was 1305.55 ± 1.3 kg/m3 and the viscosity (303.15 K, 10600 kPa, Falling or rolling sphere viscometry) was 78.1 ± 2.1 mPa·s. For the same molecule, the mass density (303.15 K, 15000 kPa) was 1309.08 ± 1.4 kg/m3, the mass density (303.15 K, 20000 kPa) was 1312.5 ± 1.4 kg/m3 and the viscosity (303.15 K, 20600 kPa, Falling or rolling sphere viscometry) was 88.77 ± 2.6 mPa·s. The mass density (303.15 K, 25000 kPa) was 1315.86 ± 1.4 kg/m3, the mass density (303.15 K, 30000 kPa) was 1319.11 ± 1.4 kg/m3 and the viscosity (303.15 K, 30400 kPa, Falling or rolling sphere viscometry) was 100.3 ± 3.1 mPa·s. It also gave a mass density (303.15 K, 35000 kPa) of 1322.31 ± 1.5 kg/m3, a mass density (303.15 K, 40000 kPa) of 1325.42 ± 1.5 kg/m3 and a viscosity (303.15 K, 40600 kPa, Falling or rolling sphere viscometry) of 113.6 ± 3.9 mPa·s. For the same molecule, the mass density (303.15 K, 45000 kPa) was 1328.53 ± 1.6 kg/m3, the mass density (303.15 K, 50000 kPa) was 1331.53 ± 1.6 kg/m3 and the viscosity (303.15 K, 50700 kPa, Falling or rolling sphere viscometry) was 128 ± 4.7 mPa·s. It also gave a viscosity (303.15 K, 60800 kPa, Falling or rolling sphere viscometry) of 144.1 ± 5.7 mPa·s, a viscosity (303.15 K, 80300 kPa, Falling or rolling sphere viscometry) of 179.8 ± 8.2 mPa·s and a viscosity (303.15 K, 100100 kPa, Falling or rolling sphere viscometry) of 223.2 ± 12 mPa·s. The electrical conductivity (308.15 K, 101.33 kPa) was 0.256 S/m and 0.255 S/m, the viscosity (313.15 K, 100 kPa, Concentric cylinders viscometry) was 43.97 ± 0.99 mPa·s and the viscosity (313.15 K, 100 kPa, Falling or rolling sphere viscometry) was 44.35 ± 2.3 mPa·s [middle of 5 runs]. The mass density (313.15 K, 100 kPa) was 1290.13 ± 1.8 kg/m3 [middle of 6 runs], the electrical conductivity (313.15 K, 101.33 kPa) was 0.31 S/m and the viscosity (313.15 K, 700 kPa, Falling or rolling sphere viscometry) was 44.4 ± 2.8 mPa·s. It also gave a mass density (313.15 K, 1000 kPa) of 1291.1 ± 1.3 kg/m3, a mass density (313.15 K, 5000 kPa) of 1294.18 ± 1.3 kg/m3 and a mass density (313.15 K, 10000 kPa) of 1297.91 ± 1.3 kg/m3. The viscosity (313.15 K, 10600 kPa, Falling or rolling sphere viscometry) was 50.22 ± 1.1 mPa·s, the mass density (313.15 K, 15000 kPa) was 1301.54 ± 1.3 kg/m3 and the mass density (313.15 K, 20000 kPa) was 1305.07 ± 1.4 kg/m3. It also gave a viscosity (313.15 K, 20600 kPa, Falling or rolling sphere viscometry) of 56.64 ± 1.3 mPa·s, a mass density (313.15 K, 25000 kPa) of 1308.48 ± 1.4 kg/m3 and a mass density (313.15 K, 30000 kPa) of 1311.85 ± 1.4 kg/m3. The viscosity (313.15 K, 30500 kPa, Falling or rolling sphere viscometry) was 63.64 ± 1.5 mPa·s, the mass density (313.15 K, 35000 kPa) was 1315.16 ± 1.5 kg/m3 and the mass density (313.15 K, 40000 kPa) was 1318.37 ± 1.5 kg/m3. It also gave a viscosity (313.15 K, 40500 kPa, Falling or rolling sphere viscometry) of 71.42 ± 1.8 mPa·s, a mass density (313.15 K, 45000 kPa) of 1321.53 ± 1.5 kg/m3 and a mass density (313.15 K, 50000 kPa) of 1324.64 ± 1.6 kg/m3. It also gave a viscosity (313.15 K, 50600 kPa, Falling or rolling sphere viscometry) of 79.95 ± 2.2 mPa·s, a viscosity (313.15 K, 60600 kPa, Falling or rolling sphere viscometry) of 89.14 ± 2.6 mPa·s and a viscosity (313.15 K, 80300 kPa, Falling or rolling sphere viscometry) of 109.9 ± 3.7 mPa·s. For the same molecule, the viscosity (313.15 K, 99900 kPa, Falling or rolling sphere viscometry) was 134.5 ± 5.1 mPa·s, the electrical conductivity (318.15 K, 101.33 kPa) was 0.371 S/m and 0.372 S/m and the electrical conductivity (323.14 K, 800 kPa, Frequency=0 MHz) was 0.434 ± 0.0087 S/m. The electrical conductivity (323.14 K, 3200 kPa, Frequency=0 MHz) was 0.423 ± 0.0085 S/m, the electrical conductivity (323.14 K, 101600 kPa, Frequency=0 MHz) was 0.17 ± 0.0034 S/m and the electrical conductivity (323.14 K, 150900 kPa, Frequency=0 MHz) was 0.113 ± 0.0023 S/m. For the same molecule, the electrical conductivity (323.14 K, 175500 kPa, Frequency=0 MHz) was 0.0922 ± 0.0019 S/m, the viscosity (323.15 K, 100 kPa, Concentric cylinders viscometry) was 30.06 ± 0.68 mPa·s and the viscosity (323.15 K, 100 kPa, Falling or rolling sphere viscometry) was 29.89 ± 1.3 mPa·s [middle of 5 runs]. For the same molecule, the electrical conductivity (323.15 K, 100 kPa, Frequency=0 MHz) was 0.437 ± 0.0092 S/m, the mass density (323.15 K, 100 kPa) was 1281.76 ± 1.8 kg/m3 [middle of 6 runs] and the electrical conductivity (323.15 K, 101.33 kPa) was 0.437 S/m and 0.44 S/m and 0.441 S/m. For the same molecule, the viscosity (323.15 K, 700 kPa, Falling or rolling sphere viscometry) was 30.1 ± 1.6 mPa·s, the mass density (323.15 K, 1000 kPa) was 1282.87 ± 1.3 kg/m3 and the electrical conductivity (323.15 K, 2200 kPa, Frequency=0 MHz) was 0.427 ± 0.0086 S/m.

— the NIST ThermoML archive (doi:10.1021/acs.jced.8b00011)
